Consider 2 molecules from paper PMC11219871, “Epigenetic-based differentiation therapy for Acute Myeloid Leukemia” (Nature Communications, 2024).

Experiment in all cases: Epigenetic panel (BPS Bioscience)
Holding throughout (assay type): binding

One test deals with T1, SMARCA2A (Homo sapiens, UniProt P51531).
T1 construct: purchased BPS Bioscience; Eurofins (HDAC4, 5, 7-11)
The source says:
(§1) The selectivity of CM-444 and CM-1758 against other epigenetic targets, including histone demethylase (JMJD2A, JMJD2B, JMJD2C, JMJD2D, JMJD2E, JMJD3, JMJD1A, LSD1, Jarid1A, Jarid1B, Jarid1C, FBXL10, FBXL11, JHDM1D, JMJD1B, PHF8, LSD2 and UTX); histone acetyltransferases (GCN5, P300); histone methyltransferases (G9a, GLP, MLL1, SET7/9, SUV39H1, SUV39H2, PRMT1, PRMT3, PRMT4, PRMT5, PRMT6, PRMT8, PRMT9, NSD1, NSD2, EZH1, EZH2, SETDB1, SETD2, SET8, SUV4-20H1, SMYD2, SMYD3, DOT1L, EZH2 (A677G), EZH2 (A677G), EZH2 (A738T), EZH2 (Y641S), EZH2 (P132S), EZH2 (Y641C), EZH2 (Y641F), EZH2 (Y641H), EZH2 (Y641N)); bromodomains (ATAD2B, ATAD2A, BRD1, BRD9, BPTF/FALZ, CeCR2, BRPF3, BRD3 (BD1 + BD2), BAZ2B, WDR9, TAF1 (BD2), TAF1L (BD2), TAF1L (BD1 + BD2), BRD2 (BD1), BRD2 (BD2), BRD2 (BD1 + BD2), BRD3 (BD1), BRD3 (BD2), BRD4 (BD1), BRD4 (BD2), BRD4 (BD1 + BD2), BRDT (BD1), BRDT (BD1 + BD2), CREBBP, SMARCA2A, SMARCA4/BRG1); DNA methyltranferases (DNMT1, DNMT3A/3L and DNMT3B/3L), and sirtuin histone deacetylases (SIRT1, SIRT2, SIRT3, SIRT5 and SIRT6), were determined by BPS Bioscience (http://www.bpsbioscience.com/index.ph). Binding experiments were performed in duplicate at a concentration of 10 μM.

The next test concerns the target T2, BRD1 (Homo sapiens, UniProt O95696).
T2 construct: purchased BPS Bioscience; Eurofins (HDAC4, 5, 7-11)
Source text: as §1

In a further test the target is T3, BPTF/FALZ (Homo sapiens, UniProt Q12830).
T3 construct: purchased BPS Bioscience; Eurofins (HDAC4, 5, 7-11)
Source text: as §1

In the next test the target is T4, TAF1L (BD1+BD2) (Homo sapiens, UniProt Q8IZX4).
T4 construct: purchased BPS Bioscience; Eurofins (HDAC4, 5, 7-11)
Source text: as §1

The target of the next test is T5, BRDT (BD1+BD2) (Homo sapiens, UniProt Q58F21).
T5 construct: purchased BPS Bioscience; Eurofins (HDAC4, 5, 7-11)
Source text: as §1

A further test deals with T6, BRD4 (BD2) (Homo sapiens, UniProt O60885).
T6 construct: purchased BPS Bioscience; Eurofins (HDAC4, 5, 7-11)
Source text: as §1

The next test deals with T7, BRD2 (BD1+BD2) (Homo sapiens, UniProt P25440).
T7 construct: purchased BPS Bioscience; Eurofins (HDAC4, 5, 7-11)
T7 sequence (P25440 65-459 limits assumed): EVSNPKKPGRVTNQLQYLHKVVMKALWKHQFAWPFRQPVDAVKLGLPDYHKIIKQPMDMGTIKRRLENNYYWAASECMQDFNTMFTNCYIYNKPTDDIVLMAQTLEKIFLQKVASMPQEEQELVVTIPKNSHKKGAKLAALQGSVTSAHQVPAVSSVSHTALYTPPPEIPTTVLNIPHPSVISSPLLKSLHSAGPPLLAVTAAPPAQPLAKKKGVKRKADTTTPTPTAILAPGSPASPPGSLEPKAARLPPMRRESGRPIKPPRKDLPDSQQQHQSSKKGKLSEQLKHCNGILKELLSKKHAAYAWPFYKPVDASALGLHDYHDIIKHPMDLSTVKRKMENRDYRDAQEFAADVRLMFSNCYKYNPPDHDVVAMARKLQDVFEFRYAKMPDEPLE
Source text: as §1

In another test the target is T8, BRD4 (BD1+BD2) (Homo sapiens, UniProt O60885).
T8 construct: purchased BPS Bioscience; Eurofins (HDAC4, 5, 7-11)
Source text: as §1

The next test has as its target T9, ATAD2A (Homo sapiens, UniProt Q6PL18).
T9 construct: purchased BPS Bioscience; Eurofins (HDAC4, 5, 7-11)
Source text: as §1

Another test concerns the target T10, BRD2 (BD2) (Homo sapiens, UniProt P25440).
T10 construct: purchased BPS Bioscience; Eurofins (HDAC4, 5, 7-11)
Source text: as §1

Another test deals with T11, BRD3 (BD1) (Homo sapiens, UniProt Q15059).
T11 construct: BRD3 (BD1); purchased BPS Bioscience (contracted assay service)
T11 sequence (Q15059 34-140 limits assumed): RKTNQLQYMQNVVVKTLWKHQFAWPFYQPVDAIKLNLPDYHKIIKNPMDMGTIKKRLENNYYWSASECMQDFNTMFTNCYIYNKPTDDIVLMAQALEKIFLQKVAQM
Source text: as §1

For a further test, the target named is T12, BRD9 (Homo sapiens, UniProt Q9H8M2).
T12 construct: purchased BPS Bioscience (contracted assay service)
T12 sequence (Q9H8M2 1-597): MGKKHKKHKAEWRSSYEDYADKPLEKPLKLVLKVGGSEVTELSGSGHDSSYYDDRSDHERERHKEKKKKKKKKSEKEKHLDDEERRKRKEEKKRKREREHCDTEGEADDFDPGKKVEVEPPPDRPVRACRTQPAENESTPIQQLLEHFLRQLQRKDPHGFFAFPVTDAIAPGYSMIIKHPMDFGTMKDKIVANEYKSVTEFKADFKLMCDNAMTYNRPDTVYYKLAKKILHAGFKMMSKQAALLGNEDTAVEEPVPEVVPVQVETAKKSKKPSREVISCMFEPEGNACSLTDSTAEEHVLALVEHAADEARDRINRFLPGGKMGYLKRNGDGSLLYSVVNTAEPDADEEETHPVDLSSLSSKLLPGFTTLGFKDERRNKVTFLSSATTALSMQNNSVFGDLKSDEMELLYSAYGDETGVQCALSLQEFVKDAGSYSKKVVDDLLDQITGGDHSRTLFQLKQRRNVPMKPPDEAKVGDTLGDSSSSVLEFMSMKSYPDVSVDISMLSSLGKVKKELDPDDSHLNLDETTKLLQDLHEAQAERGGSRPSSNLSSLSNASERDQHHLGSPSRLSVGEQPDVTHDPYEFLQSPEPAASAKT
Source text: as §1

In another test the target is T13, ATAD2B (Homo sapiens, UniProt Q9ULI0).
T13 construct: purchased BPS Bioscience; Eurofins (HDAC4, 5, 7-11)
Source text: as §1

The target in another test is T14, BRPF3 (Homo sapiens, UniProt Q9ULD4).
T14 construct: purchased BPS Bioscience; Eurofins (HDAC4, 5, 7-11)
Source text: as §1

A further test concerns the target T15, BRD4 (BD1) (Homo sapiens, UniProt O60885).
T15 construct: purchased BPS Bioscience; Eurofins (HDAC4, 5, 7-11)
Source text: as §1

For another test, the target named is T16, BRD3 (BD1+BD2) (Homo sapiens, UniProt Q15059).
T16 construct: purchased BPS Bioscience; Eurofins (HDAC4, 5, 7-11)
T16 sequence (Q15059 29-419 limits assumed): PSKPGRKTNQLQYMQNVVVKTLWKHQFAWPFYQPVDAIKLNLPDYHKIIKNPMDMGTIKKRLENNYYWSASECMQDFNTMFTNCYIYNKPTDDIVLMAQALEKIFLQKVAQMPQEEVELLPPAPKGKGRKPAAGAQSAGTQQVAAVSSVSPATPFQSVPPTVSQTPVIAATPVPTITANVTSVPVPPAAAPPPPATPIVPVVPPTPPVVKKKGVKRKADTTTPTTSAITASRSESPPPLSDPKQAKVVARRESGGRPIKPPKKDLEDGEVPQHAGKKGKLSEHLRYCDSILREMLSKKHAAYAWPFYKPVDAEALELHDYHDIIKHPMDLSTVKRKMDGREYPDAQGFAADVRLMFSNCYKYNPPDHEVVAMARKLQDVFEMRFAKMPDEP
Source text: as §1

The next test deals with T17, BRDT (BD1) (Homo sapiens, UniProt Q58F21).
T17 construct: purchased BPS Bioscience; Eurofins (HDAC4, 5, 7-11)
Source text: as §1

Another test concerns the target T18, SMARCA4/BRG1 (Homo sapiens, UniProt P51532).
T18 construct: purchased BPS Bioscience; Eurofins (HDAC4, 5, 7-11)
Source text: as §1

The target of the next test is T19, BAZ2B (Homo sapiens, UniProt Q9UIF8).
T19 construct: purchased BPS Bioscience; Eurofins (HDAC4, 5, 7-11)
Source text: as §1

The target in another test is T20, BRD2 (BD1) (Homo sapiens, UniProt P25440).
T20 construct: BRD2 (BD1); purchased BPS Bioscience (contracted assay service)
T20 sequence (P25440 74-180 limits assumed): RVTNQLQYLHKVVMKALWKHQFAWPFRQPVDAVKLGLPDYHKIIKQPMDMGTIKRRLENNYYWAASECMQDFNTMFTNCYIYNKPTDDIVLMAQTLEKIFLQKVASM
Source text: as §1

The target in the next test is T21, WDR9 (Homo sapiens, UniProt Q9NSI6).
T21 construct: purchased BPS Bioscience (contracted assay service)
T21 sequence (Q9NSI6 whole entry): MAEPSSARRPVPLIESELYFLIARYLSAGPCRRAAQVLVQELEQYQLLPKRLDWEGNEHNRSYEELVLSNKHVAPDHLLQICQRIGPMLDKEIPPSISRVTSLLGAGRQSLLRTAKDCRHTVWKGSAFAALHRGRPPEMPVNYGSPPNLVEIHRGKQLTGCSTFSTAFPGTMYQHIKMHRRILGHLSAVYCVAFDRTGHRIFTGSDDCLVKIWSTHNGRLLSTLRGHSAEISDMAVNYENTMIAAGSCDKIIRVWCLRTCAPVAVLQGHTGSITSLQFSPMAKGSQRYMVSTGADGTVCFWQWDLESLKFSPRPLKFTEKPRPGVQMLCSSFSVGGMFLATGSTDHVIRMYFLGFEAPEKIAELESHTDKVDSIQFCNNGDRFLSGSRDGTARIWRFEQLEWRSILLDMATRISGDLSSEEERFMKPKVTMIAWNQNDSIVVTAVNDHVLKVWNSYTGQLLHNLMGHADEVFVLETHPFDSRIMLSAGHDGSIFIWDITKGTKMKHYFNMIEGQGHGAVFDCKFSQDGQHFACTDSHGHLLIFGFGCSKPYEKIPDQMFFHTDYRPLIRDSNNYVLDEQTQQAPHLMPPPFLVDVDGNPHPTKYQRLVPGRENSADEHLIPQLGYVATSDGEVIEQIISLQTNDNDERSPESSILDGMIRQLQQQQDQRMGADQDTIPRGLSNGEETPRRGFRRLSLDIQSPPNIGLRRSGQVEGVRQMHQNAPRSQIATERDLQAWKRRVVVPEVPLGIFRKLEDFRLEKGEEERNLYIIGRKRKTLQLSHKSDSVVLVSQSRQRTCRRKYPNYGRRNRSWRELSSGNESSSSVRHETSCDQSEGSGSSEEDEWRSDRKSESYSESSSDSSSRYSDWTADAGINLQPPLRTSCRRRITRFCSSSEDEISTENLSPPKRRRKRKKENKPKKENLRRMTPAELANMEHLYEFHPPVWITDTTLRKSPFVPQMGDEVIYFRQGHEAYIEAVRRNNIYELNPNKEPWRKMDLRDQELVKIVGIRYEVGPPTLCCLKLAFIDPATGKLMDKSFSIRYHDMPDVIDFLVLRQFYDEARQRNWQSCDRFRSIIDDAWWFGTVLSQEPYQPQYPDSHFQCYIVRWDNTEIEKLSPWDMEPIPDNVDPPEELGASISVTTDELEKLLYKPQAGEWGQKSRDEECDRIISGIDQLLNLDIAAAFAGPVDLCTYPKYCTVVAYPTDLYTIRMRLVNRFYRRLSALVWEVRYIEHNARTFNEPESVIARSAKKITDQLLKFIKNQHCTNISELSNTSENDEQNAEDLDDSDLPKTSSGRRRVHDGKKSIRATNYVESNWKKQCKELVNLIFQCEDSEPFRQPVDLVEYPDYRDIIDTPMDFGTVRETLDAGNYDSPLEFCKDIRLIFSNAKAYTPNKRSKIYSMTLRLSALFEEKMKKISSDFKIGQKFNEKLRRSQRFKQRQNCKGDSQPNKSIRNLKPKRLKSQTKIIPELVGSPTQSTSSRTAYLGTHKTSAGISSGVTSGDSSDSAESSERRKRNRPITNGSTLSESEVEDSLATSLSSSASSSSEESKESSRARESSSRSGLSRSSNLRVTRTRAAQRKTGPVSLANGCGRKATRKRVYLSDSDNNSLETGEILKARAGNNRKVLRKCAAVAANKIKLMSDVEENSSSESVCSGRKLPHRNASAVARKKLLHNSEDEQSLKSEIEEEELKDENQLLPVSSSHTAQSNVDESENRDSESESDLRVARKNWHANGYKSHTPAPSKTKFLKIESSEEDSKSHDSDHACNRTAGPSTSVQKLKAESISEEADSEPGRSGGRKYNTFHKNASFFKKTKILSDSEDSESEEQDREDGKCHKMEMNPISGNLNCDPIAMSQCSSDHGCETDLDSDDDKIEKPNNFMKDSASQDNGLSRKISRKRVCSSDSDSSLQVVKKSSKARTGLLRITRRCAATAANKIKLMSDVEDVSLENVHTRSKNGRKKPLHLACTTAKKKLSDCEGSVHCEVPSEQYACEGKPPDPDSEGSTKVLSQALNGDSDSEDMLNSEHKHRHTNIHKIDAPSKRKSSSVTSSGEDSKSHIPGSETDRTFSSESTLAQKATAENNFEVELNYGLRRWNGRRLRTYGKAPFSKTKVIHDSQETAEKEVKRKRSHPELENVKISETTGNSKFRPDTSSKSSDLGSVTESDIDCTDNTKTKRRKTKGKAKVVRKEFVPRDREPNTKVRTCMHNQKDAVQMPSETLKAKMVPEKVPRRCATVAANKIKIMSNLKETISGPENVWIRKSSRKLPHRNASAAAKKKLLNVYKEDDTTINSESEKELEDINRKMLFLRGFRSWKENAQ
Source text: as §1

T18 sequence (P51532 whole entry): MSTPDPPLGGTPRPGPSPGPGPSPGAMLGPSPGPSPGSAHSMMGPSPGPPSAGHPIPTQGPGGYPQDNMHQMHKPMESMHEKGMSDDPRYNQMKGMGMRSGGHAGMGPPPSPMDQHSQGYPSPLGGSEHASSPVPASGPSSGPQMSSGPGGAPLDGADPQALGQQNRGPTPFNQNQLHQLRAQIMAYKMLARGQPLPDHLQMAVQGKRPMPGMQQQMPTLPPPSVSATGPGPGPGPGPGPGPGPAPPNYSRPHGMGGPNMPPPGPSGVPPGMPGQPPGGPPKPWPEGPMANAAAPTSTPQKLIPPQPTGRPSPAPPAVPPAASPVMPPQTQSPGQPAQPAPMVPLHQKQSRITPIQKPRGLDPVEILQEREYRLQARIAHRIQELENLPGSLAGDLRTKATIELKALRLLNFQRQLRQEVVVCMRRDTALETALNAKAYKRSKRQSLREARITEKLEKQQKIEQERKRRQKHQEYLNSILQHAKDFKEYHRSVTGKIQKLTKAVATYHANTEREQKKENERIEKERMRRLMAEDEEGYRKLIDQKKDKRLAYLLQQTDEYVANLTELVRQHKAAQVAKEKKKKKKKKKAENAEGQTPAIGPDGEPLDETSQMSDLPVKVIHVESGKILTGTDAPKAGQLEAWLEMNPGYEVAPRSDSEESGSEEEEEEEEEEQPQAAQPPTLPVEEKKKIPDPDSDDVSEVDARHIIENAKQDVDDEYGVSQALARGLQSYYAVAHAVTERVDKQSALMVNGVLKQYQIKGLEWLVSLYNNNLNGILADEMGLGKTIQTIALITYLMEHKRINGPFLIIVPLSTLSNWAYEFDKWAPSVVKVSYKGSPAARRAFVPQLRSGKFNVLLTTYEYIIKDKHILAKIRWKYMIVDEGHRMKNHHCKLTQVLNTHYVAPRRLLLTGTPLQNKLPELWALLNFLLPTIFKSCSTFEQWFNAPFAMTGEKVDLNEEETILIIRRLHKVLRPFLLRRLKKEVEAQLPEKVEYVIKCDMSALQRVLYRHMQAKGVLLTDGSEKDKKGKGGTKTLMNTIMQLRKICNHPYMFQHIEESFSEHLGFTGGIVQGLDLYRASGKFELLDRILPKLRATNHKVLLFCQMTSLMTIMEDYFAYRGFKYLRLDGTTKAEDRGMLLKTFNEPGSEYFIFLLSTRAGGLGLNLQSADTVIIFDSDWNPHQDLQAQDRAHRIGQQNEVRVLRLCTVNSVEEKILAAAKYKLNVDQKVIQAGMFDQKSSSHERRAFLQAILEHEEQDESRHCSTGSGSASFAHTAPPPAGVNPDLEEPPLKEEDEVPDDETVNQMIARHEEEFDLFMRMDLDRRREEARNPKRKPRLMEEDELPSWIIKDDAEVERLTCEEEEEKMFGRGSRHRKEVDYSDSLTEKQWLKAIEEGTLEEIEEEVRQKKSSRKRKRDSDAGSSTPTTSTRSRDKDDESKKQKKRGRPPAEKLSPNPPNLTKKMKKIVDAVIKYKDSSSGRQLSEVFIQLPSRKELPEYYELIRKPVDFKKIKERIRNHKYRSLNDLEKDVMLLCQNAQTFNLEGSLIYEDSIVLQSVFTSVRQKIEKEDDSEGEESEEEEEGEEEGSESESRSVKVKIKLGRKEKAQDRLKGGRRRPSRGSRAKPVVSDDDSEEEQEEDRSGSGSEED

For `COc1cc2nc(-c3ccc(C)o3)cc(NCC3CCN(c4ncc(C(=O)NO)cn4)CC3)c2cc1OC` [CM-444, 2-[4-[[[6,7-dimethoxy-2-(5-methyl-2-furyl)-4-quinolyl]amino]methyl]-1-piperidyl]pyrimidine-5-carbohydroxamic acid], the inhibition at 10 µM is 0% against SMARCA2A; 0% against BRD1; 0% on BPTF/FALZ; 0% against TAF1L (BD1+BD2); 38% at BRDT (BD1+BD2); 0% on BRD4 (BD2). Also, the inhibition at 10 µM was 21% on BRD2 (BD1+BD2); 41% on BRD4 (BD1+BD2); 0% against ATAD2A; 0% on BRD2 (BD2); 20% against BRD3 (BD1); 69% against BRD9. The inhibition at 10 µM came out at 0% against ATAD2B; 0% on BRPF3; 6% against BRD4 (BD1); 43% at BRD3 (BD1+BD2); 44% against BRDT (BD1); 0% at SMARCA4/BRG1. The figures for the inhibition at 10 µM at BAZ2B, on BRD2 (BD1) and at WDR9 were 0%, 71% and 51%, respectively. For the same molecule, the IC50 against BRD9 was 13 µM; on BRD2 (BD1) it was 30.8 µM; at WDR9 it was greater than 50 µM.

As for `COc1cc2nc(-c3cc(C)oc3C)cc(NCC3CCN(c4ncc(C(=O)NO)cn4)CC3)c2cc1OC` [CM-1758, 2-[4-[[[2-(2,5-dimethyl-3-furyl)-6,7-dimethoxy-4-quinolyl]amino]methyl] -1-piperidyl]pyrimidine-5-carbohydroxamic acid], the inhibition at 10 µM against SMARCA2A came to 0%; against BRD1, 3%; against BPTF/FALZ it was 0%; at TAF1L (BD1+BD2) it was 0%; on BRDT (BD1+BD2) it was 17%; against BRD4 (BD2), 0%. Moreover, the inhibition at 10 µM at BRD2 (BD1+BD2) was 29%; against BRD4 (BD1+BD2), 50%; at ATAD2A it was 0%; against BRD2 (BD2), 34%; against BRD3 (BD1), 60%; against BRD9 it was 75%. Further, the inhibition at 10 µM against ATAD2B turned out to be 13%; against BRPF3, 40%; against BRD4 (BD1), 0%; against BRD3 (BD1+BD2), 29%; against BRDT (BD1), 23%; at SMARCA4/BRG1, 18%. For the same molecule, the inhibition at 10 µM against BAZ2B worked out at 0%; against BRD2 (BD1), 25%; on WDR9, 35%. In addition, the IC50 was greater than 50 µM against BRD3 (BD1) and 36 µM at BRD9.

For orientation: inhibition means how much of the control response was suppressed. A word on the IC50: it is the concentration at which inhibition is half-maximal. A low value points to higher potency.
